Laboratory results from patent US5208344A, “Naphthalenepropionic acid derivatives as anti-inflammatory/antiallergic agents” (American Home Products Corporation, priority 1991, dated 1993).
Counter-ions that a name gives are not always drawn.

What was measured:
[1] = tested on: ovalbumin-induced bronchoconstriction; test: inhibition of antigen (ovalbumin)-induced bronchoconstriction in anesthetized guinea pigs; assay type: in vivo; settings: orally administered 4 hours before induction; guinea pig; 240 min
Experimental: The compounds of the invention are tested to measure their in vivo ability to inhibit the bronchoconstriction induced in anesthetized guinea pigs by exogenously administered antigen.
Male Hartley guinea pigs (400-700 gm) are sensitized three weeks prior to antigen (ovalbumin-OA) challenge as follows: each guinea pig is given two intramuscular injections--0.35 ml of Grade V OA, 50 mg/ml, into each hindlimb.
Guinea pigs, fasted overnight but allowed water adlibitum, are anesthetized with 1.2 g/kg of urethane (intraperitoneal). Supplemental does of […] of urethane are administered intraperitoneally as needed. One carotid artery and one jugular vein are cannulated to allow for the monitoring of blood pressure and the administration of drugs, respectively. A duodenal cannula is inserted for intraduodenal dosing studies. The trachea of each animal is cannulated and connected to a Harvard respirator. […] Respiratory overflow pressure is measured from a side arm off the tracheal cannula which is connected via a Gould or Beckman pressure transducer to a suitable strip chart recorder. […]
Test compounds are administered intravenously, perorally, or intraduodenally at appropriate times prior to OA challenge. […] Control experiments are used to determine the effects of solvents on the measured parameters, and test data is corrected for any significant solvent effects.
Bronchoconstriction is assessed as increases in respiratory overflow pressure (cm H2 O). Changes in blood pressure (mm Hg) are also recorded.
Test compound-induced changes in the respiratory overflow pressure are assessed as percent changes from control experiments. […] The net change in overflow pressure is measured 5 minutes after antigen challenge and is calculated as follows. […] The percent change value for the drug treated group versus the control group is calculated as follows: […]

LTD4 = biological target: T1, LTD4 (Cavia porcellus, UniProt Q2NNR5); test: LTD4 antagonist activity in isolated guinea pig trachea; assay type: cell-based; settings: 1 × 10^-5 M
T1 construct: isolated guinea pig trachea; from tissue; host or cells: guinea pig tracheal rings
T1 sequence (Q2NNR5 1-340): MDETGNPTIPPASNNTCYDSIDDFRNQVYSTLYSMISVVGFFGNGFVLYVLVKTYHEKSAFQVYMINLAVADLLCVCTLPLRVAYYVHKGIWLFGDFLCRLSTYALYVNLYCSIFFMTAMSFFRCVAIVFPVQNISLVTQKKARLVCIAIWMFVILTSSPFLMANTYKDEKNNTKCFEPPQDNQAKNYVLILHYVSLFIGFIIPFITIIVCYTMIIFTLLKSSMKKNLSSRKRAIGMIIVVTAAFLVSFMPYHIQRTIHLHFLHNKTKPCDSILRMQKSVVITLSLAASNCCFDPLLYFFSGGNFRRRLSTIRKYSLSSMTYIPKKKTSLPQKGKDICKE
Experimental: The LTD4 antagonist activity of the compounds of the invention is assessed in the in vitro isolated guinea pig trachea assay. Male Hartley guinea pigs (350-400 g) are euthanized by a blow to the head, the neck is opened and the trachea removed. The trachea is maintained in aerated physiological salt solution, cleared of connective tissue and fat and cut into rings approximately 2 mm in width (usually containing two cartilaginous segments per ring). Two pieces of silk suture are then passed through the lumen of the tracheal ring and are tied around the cartilage, one on each side of the trachealis muscle. The tracheal ring is suspended between a glass hook and a force displacement transducer in a 10 ml organ bath for measurement of isometric tension. Tissues are maintained at 37° C. in aerated ([…] /5% CO2) physiological salt solution of the following composition: […] The tracheal rings are maintained at 2 g resting tension and equilibrated for 45 minutes (with frequence washing and readjustment of resting tension). The tracheal rings are first contracted by the addition of carbachol (3×10^-6 M), to determine tissue responsiveness and establish a reference contraction. On attainment of a stable level of contraction (approximately 30 minutes), the tissues are washed several times until baseline tension has been restored and the re-equilibrated for 30 minutes. The tissues are then incubated for 45 minutes with a test antagonist (either 1×10^-6 M or 1×10^-5 M) or 10 μl of an appropriate solvent control (control, non-treated). One tissue in each group serves as the control. Twenty minutes prior to the construction of the LTD4 cumulative concentration-response curve, L-[…]×10^-2 M final bath concentration) is added to inhibit bioconversion of LTD4 to LTE4. Only one LTD4 concentration-response curve is constructed in each tissue. All responses to LTD4 in an individual tissue are measured as a percentage of the reference contraction of that tissue to carbachol. LTD4 antagonist activity is determined by comparison of the concentration response curves of LTD4 in the presence and absence of antagonist. Assessment of the relative rightward shift of the antagonist treated curve relative to the solvent (control) treated tissue is calculated as a concentration ratio (Eq. A) and used in subsequent calculations to derive an antagonist pKB value (Eqs. B and C). In the vent that the maximum response to LTD4 is depressed, the EC50 for that particular curve is determined, an "apparent" pKB reported, and the compound reported as "not-competitive." [formula] If a compound is found to be active and/or depress the maximal response to LTD4, then a range of concentrations of the test compound should be used generating multiple concentration ratios which would than be used to perform a Schild analysis, and determination of a pA2 value where appropriate.

| Kb (LTD4) | SMILES | ED50 (ovalbumin-induced bronchoconstriction) [1] |
| --- | --- | --- |
| 631 nM | C[C@H](C(=O)O)c1ccc2cc(OCc3ccc4ccccc4n3)ccc2c1 [Example 17, S-(α)-α-Methyl-6-(2-quinolinylmethoxy)-2-naphthaleneacetic acid, tromethanime salt] | 7 mg/kg |
| 501 nM | C[C@H](C(=O)N(C)O)c1ccc2cc(OCc3ccc4ccccc4n3)ccc2c1 [Example 24, (S)-N-Hydroxy-α-N-dimethyl-6-(2-quinolinylmethoxy)-2-naphthaleneacetamide] |  |
